Data from the supplement of paper PMC10307832.

Experiments:
Assay in all cases: relative viability (nuclei count vs DMSO), 5 days (fraction); higher = more cells survive
YM155 + Luminespib = compound: COCC[n+]1c2c(n(Cc3cnccn3)c1C)C(=O)c1ccccc1C2=O [YM155] + CCNC(=O)c1noc(-c2cc(C(C)C)c(O)cc2O)c1-c1ccc(CN2CCOCC2)cc1 [Luminespib] (partner 0.01 µM)
Procedure, shortened: (§1)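 Cells from lung cancer lines were seeded into 1536-well plates and, one day later, dosed by pin tool. Treatments were either a single drug or a fixed dose of an anchor drug with five library-drug doses (not always all listed) in √10 steps. After 5 days, nuclei were stained in a one-step fixation (final 0.05% Triton X-100, 1% formaldehyde, 1 ug/ml Hoechst) and counted on 4× images, and relative viability is the treated-to-vehicle nuclei ratio, as the median of duplicate plates.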

Quizartinib + Navitoclax = compound: CC(C)(C)c1cc(NC(=O)Nc2ccc(-c3cn4c(n3)sc3cc(OCCN5CCOCC5)ccc34)cc2)no1 [Quizartinib] + CC1(C)CCC(c2ccc(Cl)cc2)=C(CN2CCN(c3ccc(C(=O)NS(=O)(=O)c4ccc(N[C@H](CCN5CCOCC5)CSc5ccccc5)c(S(=O)(=O)C(F)(F)F)c4)cc3)CC2)C1 [Navitoclax] (partner 0.5 µM)
Procedure, shortened: as §1

Quizartinib + Lapatinib = compound: CC(C)(C)c1cc(NC(=O)Nc2ccc(-c3cn4c(n3)sc3cc(OCCN5CCOCC5)ccc34)cc2)no1 [Quizartinib] + CS(=O)(=O)CCNCc1ccc(-c2ccc3ncnc(Nc4ccc(OCc5cccc(F)c5)c(Cl)c4)c3c2)o1 [Lapatinib] (partner 2 µM)
Procedure, shortened: as §1

YM155 + Dasatinib = compound: COCC[n+]1c2c(n(Cc3cnccn3)c1C)C(=O)c1ccccc1C2=O [YM155] + Cc1nc(Nc2ncc(C(=O)Nc3c(C)cccc3Cl)s2)cc(N2CCN(CCO)CC2)n1 [Dasatinib] (partner 0.075 µM)
Procedure, shortened: as §1

Row | Cell Line | relative viability (YM155 + Luminespib; first compound 0.002 µM) | relative viability (YM155 + Luminespib; first compound 0.006325 µM) | relative viability (YM155 + Luminespib; first compound 0.02 µM) | relative viability (YM155 + Luminespib; first compound 0.06325 µM) | relative viability (Quizartinib + Navitoclax; first compound 0.001 µM) | relative viability (Quizartinib + Navitoclax; first compound 0.003162 µM) | relative viability (Quizartinib + Navitoclax; first compound 0.01 µM) | relative viability (Quizartinib + Navitoclax; first compound 0.1 µM) | relative viability (Quizartinib + Lapatinib; first compound 0.001 µM) | relative viability (Quizartinib + Lapatinib; first compound 0.003162 µM) | relative viability (Quizartinib + Lapatinib; first compound 0.01 µM) | relative viability (Quizartinib + Lapatinib; first compound 0.1 µM) | relative viability (YM155 + Dasatinib; first compound 0.002 µM) | relative viability (YM155 + Dasatinib; first compound 0.006325 µM) | relative viability (YM155 + Dasatinib; first compound 0.02 µM) | relative viability (YM155 + Dasatinib; first compound 0.06325 µM) | relative viability (Quizartinib + Navitoclax; first compound 0.03162 µM) | relative viability (Quizartinib + Lapatinib; first compound 0.03162 µM)
1 | NCI-H460 | 0.0266 | 0.0307 | 0.035 | 0.0204 | 1 | 1.09 | 1.24 | 1.13 | 0.924 | 1.03 | 1.26 | 0.205 | 0.487 | 0.499 | 0.582 | 0.547 | – | –
2 | NCI-H520 | 0.238 | 0.266 | 0.215 | 0.233 | 1.17 | 0.982 | 1.19 | 0.888 | 0.649 | 0.766 | 0.828 | 0.591 | 0.197 | 0.174 | 0.217 | 0.185 | 0.948 | 0.85
3 | NCI-H596 | 1.06 | 1.02 | 0.924 | 1.27 | 0.931 | 0.885 | 0.985 | 0.864 | 1.06 | 0.985 | 1.08 | 1.17 | 0.653 | 0.58 | 0.544 | 0.692 | 0.883 | 1.08
4 | NCI-H647 | 0.151 | 0.148 | 0.162 | 0.106 | 0.77 | 1.11 | 1.17 | 1.2 | 0.966 | 1.1 | 1.12 | 0.985 | 0.151 | 0.241 | 0.192 | 0.149 | 1.04 | 0.97
5 | NCI-H727 | 0.588 | 0.336 | 0.307 | 0.665 | 0.408 | – | 0.611 | 0.357 | 0.876 | – | 0.929 | 0.725 | 0.359 | 0.5 | 0.389 | 0.352 | 0.476 | 0.875
6 | NCI-H838 | 0.254 | 0.429 | 0.234 | 0.158 | 1.09 | 1.06 | 1.08 | 0.815 | 0.816 | 1.11 | 0.784 | 0.605 | – | 0.291 | 0.299 | 0.281 | 1.06 | 0.675
7 | NCI-H1355 | 0.633 | 0.724 | 0.733 | 0.683 | 0.868 | 0.921 | 0.912 | 1 | 0.979 | 0.992 | 1 | 1.06 | 0.731 | 0.748 | 0.781 | 0.801 | 1 | 0.914
8 | NCI-H1395 | 0.934 | 0.81 | 0.798 | 0.971 | 1.05 | 1.07 | 1.14 | 1.36 | 0.992 | 0.941 | 0.883 | 1.2 | 0.359 | 0.423 | 0.388 | 0.444 | 1.59 | 0.842
9 | NCI-H1437 | 1.1 | 1.1 | 0.976 | 0.76 | 0.954 | 0.994 | 1.04 | 0.8 | 0.738 | 0.827 | 0.764 | 0.543 | 0.351 | 0.324 | 0.348 | 0.253 | 0.904 | 0.45
10 | NCI-H1650 | 0.181 | 0.197 | 0.175 | 0.228 | 0.928 | 1.25 | 1.35 | 1.24 | 0.189 | 0.782 | 0.579 | 0.686 | 0.283 | 0.338 | 0.368 | 0.353 | – | –
11 | NCI-H1651 | 0.869 | 0.836 | 0.789 | 0.604 | 0.848 | 0.895 | 0.963 | 0.995 | 0.718 | 0.831 | 0.781 | 0.821 | 0.437 | 0.372 | 0.442 | 0.39 | 0.845 | 0.274
12 | NCI-H1666 | 1.01 | 1.07 | 1.02 | 0.852 | 0.773 | 0.949 | 1.06 | 0.866 | 0.691 | 0.634 | 0.727 | 0.639 | 0.812 | 0.791 | 0.799 | 0.826 | 0.743 | 0.38
13 | NCI-H1734 | 0.242 | 0.202 | 0.23 | 0.174 | 0.741 | 0.794 | 0.888 | 0.849 | 0.869 | 1.1 | 1.08 | 0.998 | 0.471 | 0.525 | 0.495 | 0.518 | 0.788 | 0.873
14 | NCI-H1755 | 0.519 | 0.445 | 0.473 | 0.583 | 0.925 | 0.976 | 1.01 | 0.926 | 0.909 | 0.98 | 1.1 | 1.04 | 0.449 | 0.4 | 0.467 | 0.453 | 1 | 1.07
15 | NCI-H1792 | 0.441 | 0.47 | 0.475 | 0.403 | 0.584 | 0.646 | 0.697 | 0.587 | 0.796 | 0.853 | 0.969 | 0.932 | 0.83 | 0.606 | 0.782 | 0.941 | 0.617 | 0.866
16 | NCI-H1793 | 0.234 | 0.24 | 0.333 | 0.189 | 0.414 | 0.304 | 0.496 | 0.331 | 0.533 | 0.743 | 0.82 | 0.795 | 0.366 | 0.443 | 0.338 | 0.34 | 0.423 | 0.899
17 | NCI-H1915 | 0.803 | 0.809 | 0.829 | 0.711 | 0.771 | 0.75 | 0.833 | 0.785 | 0.939 | 0.931 | 0.938 | 1.04 | 0.311 | 0.284 | 0.309 | 0.301 | 0.822 | 0.965
18 | NCI-H1944 | 0.688 | 0.637 | 0.81 | 1.16 | 0.888 | 1.07 | 1.06 | 1.07 | 0.768 | 0.868 | 0.707 | 0.721 | 0.201 | 0.202 | 0.208 | 0.24 | 1.08 | 0.792
19 | NCI-H1975 | 0.283 | 0.253 | 0.209 | 0.156 | 1.02 | 1.1 | 1.19 | 1.1 | 0.746 | 0.894 | 0.847 | 1.18 | 0.312 | 0.334 | 0.352 | 0.233 | 1.06 | 0.864
20 | NCI-H1993 | 0.722 | 0.695 | 0.444 | 0.529 | 0.964 | 0.906 | 1.13 | 0.793 | 0.786 | 0.846 | 0.72 | 0.891 | 0.568 | 0.572 | 0.478 | 0.539 | 0.959 | 0.746
21 | NCI-H2009 | 1.08 | 0.986 | 1.04 | 0.476 | 1.13 | 1.16 | 1.22 | 1.23 | 0.141 | 0.865 | 0.884 | 0.93 | 0.265 | 0.264 | 0.343 | 0.266 | 1.03 | 0.695
22 | NCI-H2023 | 0.771 | 0.678 | 0.682 | 0.349 | 0.981 | 0.937 | 1.04 | 1.04 | 0.0985 | 0.819 | 0.737 | 0.846 | 0.486 | 0.588 | 0.52 | 0.374 | 0.744 | 0.293
23 | NCI-H2085 | 0.406 | 0.474 | 0.338 | 0.369 | 1.03 | 1.09 | 1.12 | 1 | 0.733 | 0.769 | 0.851 | 0.742 | 0.287 | 0.224 | 0.23 | 0.211 | 1.15 | 0.809
24 | NCI-H2087 | 0.194 | 0.17 | 0.148 | 0.149 | 0.971 | 0.953 | 1.06 | 0.962 | 0.665 | 0.906 | 1 | 0.935 | 0.765 | 0.78 | 0.964 | 0.775 | 1.02 | 1.09
25 | NCI-H2126 | 0.804 | 0.969 | 0.94 | 0.927 | 0.813 | 0.823 | 0.882 | 0.828 | 0.704 | 0.705 | 0.744 | 0.863 | 0.583 | 0.673 | 0.626 | 0.745 | 0.872 | 0.801
26 | NCI-H2170 | 0.525 | 0.751 | 0.647 | 0.596 | 0.765 | 0.627 | 0.715 | 0.665 | 0.257 | 0.273 | 0.253 | 0.272 | 0.485 | 0.628 | 0.572 | 0.625 | 0.573 | 0.262
27 | NCI-H2228 | 0.16 | 0.148 | 0.104 | 0.144 | 0.859 | 0.702 | 0.75 | 0.98 | 1.11 | 1.1 | 1.47 | 1 | 0.432 | 0.528 | 0.534 | 0.661 | 1.08 | 0.764
28 | NCI-H2347 | 0.409 | 0.41 | 0.647 | 0.368 | 0.675 | 0.886 | 0.91 | 0.994 | 0.604 | 0.923 | 0.94 | 1.1 | 0.323 | 0.321 | 0.35 | 0.334 | 0.845 | 1.03
29 | NCI-H2405 | 0.65 | 0.778 | 0.639 | 0.393 | 0.912 | 0.858 | 0.942 | 1.15 | 1.11 | 1.16 | 0.969 | 1.3 | 0.191 | 0.22 | 0.206 | 0.21 | 0.784 | 0.934
